# Test results: US20090275099A1 (priority 2004, published 2009)
# How the values were obtained:
# [1] = system: human skin in organ culture; test: RA-induced epidermal hyperplasia in human skin organ culture; details: RA-exposed skin, Bz-423 5 μg/ml
# From the text: Replicate 2 mm full-thickness punch biopsies of sun-protected hip skin were obtained from young adult volunteers. The participation of human subjects in this project was approved by the University of Michigan Institutional Review Board, and all subjects provided written informed-consent prior to their inclusion in the study. Immediately upon biopsy, the tissue was immersed in culture medium consisting of Keratinocyte Basal Medium (KBM) (Cambrex Bioscience, Walkersville, Md.). KBM is a low-Ca^2+, serum-free modification of MCDB-153 medium optimized for high-density keratinocyte growth. It was supplemented with CaCl2 to bring the final Ca^2+ concentration to 1.4 mM. After transport to the laboratory on ice, the biopsies were incubated in a 24-well dish containing 250 μl of Ca^2+-supplemented KBM with or without additional treatments (e.g., RA and/or Bz-423). Cultures were incubated at 37° C. in an atmosphere of 95% air and 5% CO2. Other than to maintain the tissue in a minimal volume of medium, nothing further was done to ensure a strict air-liquid interface. Incubation was for 8 days, with change of medium and fresh treatments every second day. […] Average thickness values for untreated, retinoid exposed, and retinoid plus Bz-423-treated biopsies were determined. […]
# Ramos cells = test: early O2− (ROS) response, 1 h; assay type: cell-based, human; details: Homo sapiens, Ramos, 1 h, read-out: ROS EC50 (μM), Ramos cells
# Method: To detect O2^−, cells are incubated with DHE (10 μM) for 30 min at 37° C. and are analyzed by flow cytometry to measure ethidium fluorescence. Flow analysis of mitochondrial transmembrane potential (ψm) is conducted by labeling cells with DiOC6(3) (20 nM) for 15 min at 37 degrees C. A positive control for disruption of ψm is established using carbonyl cyanide m-chlorophenylhydrazone (CCCP, 50 μM). Caspase activation assays are performed with FAM-VAD-fluoromethylketone. Processing of the substrate is evaluated by flow cytometry.
# Since an early mitochondrial superoxide (O2^−) mediates apoptosis induced by Bz-423, the O2^− response of cells 1 h following incubation with drug was examined, as well as cell death at 24 h, as previously described (see, e.g., Blatt, N. B., et al., 2002 J Clin Invest 110, 1123-1132; incorporated herein by reference in its entirety).
# human OSCP = molecular target: T1, human OSCP (Homo sapiens, UniProt P48047); test: OSCP binding by quenching of intrinsic protein fluorescence
# T1 construct: made in house; host or cells: E. coli
# From the text: To determine if Bz-423 indeed binds to the OSCP and the affinity of the interaction, human OSCP was overexpressed in E. coli. […] Bz-423 is the only known inhibitor of the ATPase that functions through binding to the OSCP.
# [2] = system: migration inhibitory factor (MIF); test: gene expression profiling of Ramos cells (Affymetrix U133A); assay type: cell-based, human
# Method: In vitro testing with Ramos cells to determine the changes in gene expression (at the level of mRNA) induced by Bz-423 was performed by culturing cells at a density of 500,000 cells per ml. Solvent control (DMSO, final concentration 0.1% V/V]), Bz-423, or Bz-OMe (10 μM) was added to cells. After 4 h, cells were harvested and RNA prepared using Trizol Reagent (#15596-018, Life Technologies, Rockville, Md.) and the RNeasy Maxi Kit (# 75162, Qiagen, Valencia, Calif.) according to manufacturers protocols. Single stranded cDNA was synthesized by reverse transcription using poly (A) RNA present in the starting total RNA sample. Single stranded cDNA was converted into double stranded cDNA and then in vitro transcription carried out in the presence of biotinylated UTP and CTP to produce biotin-labeled cRNA. cRNA was fragmented in the presence of Mg2+, and hybridized to the human genome U133A Genechip array (Affymetrix). Hybridization results were quantified using a GeneArray scanner and analysis carried out according to the instructions provided by Affymetrix. […]
# The data were analyzed to detect genes changes Bz treatment according to the criteria that the log-transformed mean signal changed at least four-fold in treated compared to vehicle control samples and that the coefficient of variance for control values (n=4) was less than 10%. […]
# T1 sequence (P48047 24-213): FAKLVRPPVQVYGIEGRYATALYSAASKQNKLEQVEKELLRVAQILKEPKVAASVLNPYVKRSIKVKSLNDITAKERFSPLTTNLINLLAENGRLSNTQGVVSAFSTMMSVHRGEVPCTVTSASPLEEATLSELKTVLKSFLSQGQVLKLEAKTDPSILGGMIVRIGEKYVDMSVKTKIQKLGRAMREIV
structure (smiles),measurement,setting,value
CN1C(=O)C(Cc2ccc3ccccc3c2)N=C(c2ccc(O)cc2)c2cc(Cl)ccc21 (stereo not shown) [Bz-423],histologic finding at high concentration,[1],necrosis was observed
same,EC50,Ramos cells,7.3 µM
same,Kd,human OSCP,0.2 ± 0.04 µM
same,induction of MIF,[2],approximately 10 fold
